Test results reported in patent publication US11608353B2, “Amylase inhibitor compounds, methods of their use and compositions thereof” (THE UNIVERSITY OF BRITISH COLUMBIA, priority 2016, dated 2023).
Substitutions are numbered along the chain they refer to. Values joined by “and” are separate entries in the source; they are usually repeats but may differ in a detail not shown here. Equal values may be shown once. Read-outs that look alike come from different tables or passages of the source.

Columns and labels:
[1] = biological target: T1, human pancreatic α-amylase (HPA) (Homo sapiens, UniProt P04746); assay: Inhibition of wild-type human pancreatic α-amylase (HPA), kinetic KI determination with CNP-G3; assay type: biochemical
T1 construct: made in house; host or cells: Pichia pastoris strain GM5011
T1 sequence (P04746 16-511): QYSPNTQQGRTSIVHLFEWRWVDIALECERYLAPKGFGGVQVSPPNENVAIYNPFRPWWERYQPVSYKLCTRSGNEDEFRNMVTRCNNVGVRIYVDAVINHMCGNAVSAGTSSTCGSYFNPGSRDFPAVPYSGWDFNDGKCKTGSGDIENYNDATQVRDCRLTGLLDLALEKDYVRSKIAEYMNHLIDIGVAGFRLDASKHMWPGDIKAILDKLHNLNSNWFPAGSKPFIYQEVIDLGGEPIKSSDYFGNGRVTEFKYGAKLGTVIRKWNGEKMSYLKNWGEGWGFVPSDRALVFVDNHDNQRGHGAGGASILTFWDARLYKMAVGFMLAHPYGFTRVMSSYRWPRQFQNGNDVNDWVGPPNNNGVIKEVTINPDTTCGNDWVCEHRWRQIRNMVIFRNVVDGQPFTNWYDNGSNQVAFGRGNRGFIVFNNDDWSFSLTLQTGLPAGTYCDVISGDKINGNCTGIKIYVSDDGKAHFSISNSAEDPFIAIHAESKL

[2] = biological target: Roseburia inulinivorans Amy A (Roseburia inulinivorans, UniProt A0ACG1Y5C3); assay: Inhibition of gut bacterial amylase Roseburia inulinivorans Amy A; assay type: biochemical; conditions: for Ki: GH family 13
Chain of Roseburia inulinivorans Amy A (A0ACG1Y5C3 entry or part of it): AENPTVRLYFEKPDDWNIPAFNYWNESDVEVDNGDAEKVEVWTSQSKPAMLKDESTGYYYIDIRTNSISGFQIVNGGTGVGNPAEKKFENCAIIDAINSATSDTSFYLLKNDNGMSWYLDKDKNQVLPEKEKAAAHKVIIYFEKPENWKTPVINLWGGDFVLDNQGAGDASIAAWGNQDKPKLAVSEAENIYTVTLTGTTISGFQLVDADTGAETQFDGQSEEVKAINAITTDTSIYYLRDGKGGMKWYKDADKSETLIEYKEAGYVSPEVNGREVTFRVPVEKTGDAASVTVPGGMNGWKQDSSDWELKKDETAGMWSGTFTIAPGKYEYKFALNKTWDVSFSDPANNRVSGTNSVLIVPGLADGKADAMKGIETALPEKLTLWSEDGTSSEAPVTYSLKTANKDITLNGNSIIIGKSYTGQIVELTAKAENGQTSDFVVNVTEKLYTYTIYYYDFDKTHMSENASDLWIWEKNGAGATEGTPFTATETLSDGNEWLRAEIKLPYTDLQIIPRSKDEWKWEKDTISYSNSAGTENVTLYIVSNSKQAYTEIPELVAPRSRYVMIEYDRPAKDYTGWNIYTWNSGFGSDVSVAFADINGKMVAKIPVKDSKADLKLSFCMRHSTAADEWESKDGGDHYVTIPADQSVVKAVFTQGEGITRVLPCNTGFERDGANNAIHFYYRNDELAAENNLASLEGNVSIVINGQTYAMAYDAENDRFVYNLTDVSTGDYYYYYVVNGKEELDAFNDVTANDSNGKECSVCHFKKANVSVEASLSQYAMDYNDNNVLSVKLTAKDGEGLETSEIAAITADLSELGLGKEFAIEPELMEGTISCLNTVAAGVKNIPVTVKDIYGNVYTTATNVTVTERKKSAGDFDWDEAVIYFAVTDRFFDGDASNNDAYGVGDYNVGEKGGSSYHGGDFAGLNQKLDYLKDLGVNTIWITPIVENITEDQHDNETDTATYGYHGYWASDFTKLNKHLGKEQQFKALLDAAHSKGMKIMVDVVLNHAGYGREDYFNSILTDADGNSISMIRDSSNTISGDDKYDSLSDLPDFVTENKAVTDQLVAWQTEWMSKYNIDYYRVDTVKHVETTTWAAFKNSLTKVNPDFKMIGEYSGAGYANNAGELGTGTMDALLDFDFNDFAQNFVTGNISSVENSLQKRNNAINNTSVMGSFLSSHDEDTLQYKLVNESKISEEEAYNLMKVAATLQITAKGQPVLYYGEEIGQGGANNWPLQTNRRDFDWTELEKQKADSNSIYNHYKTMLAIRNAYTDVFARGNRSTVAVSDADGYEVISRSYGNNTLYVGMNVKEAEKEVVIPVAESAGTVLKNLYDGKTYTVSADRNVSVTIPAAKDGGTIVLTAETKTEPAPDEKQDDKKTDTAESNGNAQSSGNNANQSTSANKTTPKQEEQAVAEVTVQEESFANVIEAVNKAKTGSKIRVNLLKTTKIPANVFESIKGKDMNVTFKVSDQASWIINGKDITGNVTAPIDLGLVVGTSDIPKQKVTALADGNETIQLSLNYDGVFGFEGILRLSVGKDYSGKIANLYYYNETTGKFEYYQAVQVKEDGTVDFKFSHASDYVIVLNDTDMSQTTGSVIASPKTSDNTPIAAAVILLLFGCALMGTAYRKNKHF

H. sapiens ctMGAM = biological target: T2, H. sapiens ctMGAM (Homo sapiens, UniProt O43451); assay: Inhibition of C-terminal domain of maltase-glucoamylase; assay type: biochemical; conditions: for Ki: GH family 31
T2 construct: H. sapiens ctMGAM
T2 sequence (O43451 1221-1632 limits assumed): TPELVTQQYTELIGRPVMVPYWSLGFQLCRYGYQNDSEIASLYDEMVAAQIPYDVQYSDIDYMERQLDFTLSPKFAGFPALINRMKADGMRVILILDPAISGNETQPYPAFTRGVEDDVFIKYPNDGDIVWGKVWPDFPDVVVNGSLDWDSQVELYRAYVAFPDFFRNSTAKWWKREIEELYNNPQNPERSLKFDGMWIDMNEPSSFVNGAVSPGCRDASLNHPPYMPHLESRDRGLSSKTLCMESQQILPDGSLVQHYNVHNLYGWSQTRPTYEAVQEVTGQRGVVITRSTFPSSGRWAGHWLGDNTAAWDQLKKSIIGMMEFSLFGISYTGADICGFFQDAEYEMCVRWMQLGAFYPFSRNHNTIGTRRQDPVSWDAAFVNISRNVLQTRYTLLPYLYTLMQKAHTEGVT

H. sapiens ctSI = biological target: T3, H. sapiens ctSI (Homo sapiens, UniProt P14410); assay: Inhibition of C-terminal domain of sucrose-isomaltase; assay type: biochemical
T3 construct: H. sapiens ctSI
T3 sequence (P14410 1008-1827 limits assumed): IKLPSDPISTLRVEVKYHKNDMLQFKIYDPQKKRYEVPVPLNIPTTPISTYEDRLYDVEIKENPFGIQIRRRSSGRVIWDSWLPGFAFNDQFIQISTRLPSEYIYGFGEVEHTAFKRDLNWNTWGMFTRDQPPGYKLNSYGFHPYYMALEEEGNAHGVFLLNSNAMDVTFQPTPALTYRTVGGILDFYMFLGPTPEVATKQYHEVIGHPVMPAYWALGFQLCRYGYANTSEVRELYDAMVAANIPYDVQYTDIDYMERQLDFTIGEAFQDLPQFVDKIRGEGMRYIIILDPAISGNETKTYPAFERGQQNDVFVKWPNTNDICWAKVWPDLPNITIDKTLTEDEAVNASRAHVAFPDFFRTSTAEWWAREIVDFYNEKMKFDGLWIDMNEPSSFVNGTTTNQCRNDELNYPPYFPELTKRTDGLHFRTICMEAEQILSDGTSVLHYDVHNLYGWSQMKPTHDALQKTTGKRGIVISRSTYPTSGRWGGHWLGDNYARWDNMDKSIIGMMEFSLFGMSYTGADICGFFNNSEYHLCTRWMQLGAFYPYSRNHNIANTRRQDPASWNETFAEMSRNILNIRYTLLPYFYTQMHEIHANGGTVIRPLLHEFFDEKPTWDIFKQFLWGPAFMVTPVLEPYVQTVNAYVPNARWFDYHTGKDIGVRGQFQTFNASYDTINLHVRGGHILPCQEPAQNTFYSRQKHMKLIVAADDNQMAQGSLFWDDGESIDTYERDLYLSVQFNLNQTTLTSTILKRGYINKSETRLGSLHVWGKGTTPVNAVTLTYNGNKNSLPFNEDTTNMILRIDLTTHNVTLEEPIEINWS

Homo sapiens ntMGAM = biological target: T4, Homo sapiens ntMGAM (Homo sapiens, UniProt O43451); assay: Inhibition of N-terminal domain of maltase glucoamylase; assay type: biochemical; conditions: for Ki: GH family 31
T4 construct: Homo sapiens ntMGAM
T4 sequence (O43451 356-737 limits assumed): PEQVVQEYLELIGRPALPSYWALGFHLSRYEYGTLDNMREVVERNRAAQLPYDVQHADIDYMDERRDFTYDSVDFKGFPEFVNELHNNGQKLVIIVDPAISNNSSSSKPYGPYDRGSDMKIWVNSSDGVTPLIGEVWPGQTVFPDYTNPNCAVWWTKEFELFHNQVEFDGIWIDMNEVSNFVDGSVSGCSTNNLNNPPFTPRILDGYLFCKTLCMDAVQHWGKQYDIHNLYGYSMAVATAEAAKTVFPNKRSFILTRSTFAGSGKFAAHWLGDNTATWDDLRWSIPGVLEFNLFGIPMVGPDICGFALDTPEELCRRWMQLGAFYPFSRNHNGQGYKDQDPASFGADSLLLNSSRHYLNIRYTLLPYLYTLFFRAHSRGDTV

H299N HPA = biological target: T5, H299N HPA (Homo sapiens, UniProt P04746, H314N); assay: Inhibition of H299N variant HPA, kinetic KI determination; assay type: biochemical; conditions: variant used for co-crystallization; read-out: KI for inhibition of the H299N HPA variant enzyme
T5 construct: made in house; host or cells: Pichia pastoris strain GM5011
T5 sequence (P04746 16-511 H314N): T1 sequence (P04746 16-511) with H299N
Protocol: Kinetic Studies. The inhibition constants (KI) of montbretins A-E and MbA substructures for wild-type HPA, along with MbA for H299N HPA were determined by measuring the rates of reactions at different inhibitor and substrate concentrations. […] 2-Chloro-4-nitrophenyl α-D-maltotrioside (CNP-G3) was used as the substrate in a similar range of concentrations. Initial reaction rates for the release of chloronitrophenolate were measured and the further progress of substrate cleavage monitored continuously. Reactions were performed on a Varian Cary 4000 UV/Vis spectrophotometer at 400 nm and 30° C. Observed reaction rates were fitted directly to various inhibition models using GraFit version 5.0.13 and KI values were determined. Competitive inhibition provided the best fit in each case.

diabetic rat model = conditions: McNeill, unpublished data; cited from earlier work
[3] = biological target: Butyrivibrio fibrisolvens Amy B; assay: Inhibition of gut bacterial amylase Butyrivibrio fibrisolvens Amy B; assay type: biochemical
[4] = biological target: T1, human pancreatic α-amylase (HPA); conditions: literature value, reference (5); read-out: Ki, binds to HPA; cited from earlier work
[5] = wild-type HPA, CNP-G3 substrate, pH 7.0, 30° C., competitive inhibition model, read-out: Ki of HPA
[6] = Tables 4 and 5, read-out: Ki (HPA Inhibition)
[7] = Table 6, GH family 13, mean ± s.d., read-out: Ki (nM), HPA
[8] = tested at 100 μM, read-out: Ki With MbA-GRX
[9] = tested at 500 μM, read-out: Ki with MbA

In the case of `CC1O[C@@H](Oc2c(-c3cc(O)c(O[C@@H]4OC[C@@H](O)C(O)C4O)c(O)c3)oc3cc(O)cc(O)c3c2=O)C(O[C@@H]2OC(COC(=O)/C=C/c3ccc(O)c(O)c3)[C@@H](O)C(O)C2O)C(O)[C@H]1O` (stereo partly drawn) [MbA-1GR], the Ki [1, 5] is reported as 79 nM and 79.3 nM.

With `O=C(/C=C/c1ccc(O)c(O)c1)N[C@@H]1[C@H](O)[C@@H](O)[C@H](O[C@H]2[C@H](O)[C@@H](O)[C@H](Oc3c(-c4ccc(O)c(O)c4)oc4cc(O)cc(O)c4c3=O)O[C@@H]2CO)O[C@@H]1CO` [12 (4-aminoGal)] the Ki [1, 6] was 45000 nM.

For montbretin B [MbB], the “decrease in inhibitory activity” value ([1]; relative to MbA, reference (5)) was roughly 1000 ×.

With `CC1O[C@@H](Oc2c(-c3cc(O)c(O)c(O)c3)oc3cc(O)cc(O)c3c2=O)C(O[C@@H]2OC(COC(=O)/C=C/c3ccc(O)c(O)c3)[C@@H](O)[C@@H](O)C2O[C@@H]2OC(CO)[C@@H](O)[C@@H](O)C2O)[C@@H](O)[C@H]1O` (stereo partly drawn) [MbA-RX] the Ki [1, 5] was 43 nM and 42.4 nM.

In the case of `CC1O[C@@H](Oc2c(-c3cc(O)c(O)c(O)c3)oc3cc(O)cc(O)c3c2=O)C(O[C@@H]2OC(COC(=O)/C=C/c3ccc(O)c(O)c3)[C@@H](O)[C@@H](O)C2O)[C@@H](O)[C@H]1O` (stereo partly drawn) [MbA-1GRX], the Ki [1, 7] is reported as 93.3 ± 7.6 nM, the “poorer at binding to the active site of HPA than the full structure of MbA” value ([1]; relative to MbA (KI=4.4 nM)) is reported as roughly 25 × and the Ki [1, 5] is reported as 93 nM and 93.3 nM. The Ki [2, 8] was greater than 100 µM, the Ki (H. sapiens ctMGAM; [8]) was greater than 100 µM and the “inhibition of maltase-glucoamylase (in words)” value (H. sapiens ctMGAM; MbA-GRX) was “No inhibition”. The IC50 (H. sapiens ctSI) was 75.5 µM, the Ki (Homo sapiens ntMGAM; [8]) was greater than 100 µM and the “inhibition of maltase-glucoamylase (in words)” value (Homo sapiens ntMGAM; MbA-GRX) was “No inhibition”.

Work on `O=C(/C=C/c1ccc(O)c(O)c1)NCCCOc1c(-c2ccc(O)c(O)c2)oc2cc(O)cc(O)c2c1=O` [Compound 03] yielded a Ki [1, 6] of 145000 nM.

With `O=C(/C=C/c1ccc(O)c(O)c1)NC[C@H]1O[C@@H](O[C@H]2[C@H](O)[C@@H](O)[C@H](Oc3c(-c4ccc(O)c(O)c4)oc4cc(O)cc(O)c4c3=O)O[C@@H]2CO)[C@H](O)[C@@H](O)[C@@H]1O` [11 (6-aminoGlc)] the Ki [1, 6] was 70000 nM.

Quercetin/Myricetin gave a Ki [1, 6] of 100000 nM.

Compound `O=C(/C=C/c1ccc(O)c(O)c1)NCCCCCCCOc1c(-c2ccc(O)c(O)c2)oc2cc(O)cc(O)c2c1=O` [Compound 05] has a Ki [1, 6] of 4000 nM.

With Montbretin D [MbD] the “inhibitory activity against HPA (in words)” value [1] was “poor inhibitory activity”.

Compound montbretin A [MbA] has a Ki [1, 7] of 8.1 nM, a Ki [1, 6] of 8 nM and a Ki [1, 5] of 4.4 nM. The “inhibition of gut bacterial amylase (in words)” value [2] was “not inhibited at all”, the Ki [2, 9] was greater than 500 µM and the Ki (H. sapiens ctMGAM; [9]) was greater than 500 µM. For the same compound, the “inhibition of human maltase-glucoamylase (MGAM) (in words)” value (H. sapiens ctMGAM; concentrations up to 500 μM) was “Neither the human maltase-glucoamylase (MGAM) nor the human sucrose isomaltase (SI) was inhibited”, the Ki (H299N HPA) was 0.124 µM and the Ki (H. sapiens ctSI; GH family 31, tested at 500 μM, read-out: Ki with MbA) was greater than 500 µM. The “inhibition of human sucrose isomaltase (SI) (in words)” value (H. sapiens ctSI; concentrations up to 500 μM) was “Neither the human maltase-glucoamylase (MGAM) nor the human sucrose isomaltase (SI) was inhibited”, the Ki (Homo sapiens ntMGAM; [9]) was greater than 500 µM and the “inhibition of human maltase-glucoamylase (MGAM) (in words)” value (Homo sapiens ntMGAM; concentrations up to 500 μM) was “Neither the human maltase-glucoamylase (MGAM) nor the human sucrose isomaltase (SI) was inhibited”. For the same compound, the “reducing postprandial glucose spiking and delaying the onset of diabetes” value (diabetic rat model) was “superior to other inhibitors”, the Ki [3] was 1.6 µM and the Ki [4] was 0.008 µM.

With Montbretin E [MbE] the “inhibitory activity against HPA (in words)” value [1] was “poor inhibitory activity”.

With montbretin C [MbC] the “lower inhibition for HPA than MbB” value ([1]; relative to MbB) was 2 ×.

`O=C(/C=C/c1ccc(O)c(O)c1)NCCOCCOCCOc1c(-c2ccc(O)c(O)c2)oc2cc(O)cc(O)c2c1=O` [Compound 02] gave a Ki [1, 6] of 82000 nM.
